Measurements: patent US5071839A, “Safe pharmaceutical composition for decreasing side effects of antiviral drugs and increasing the immune function (SDI) II” (priority 1987, dated 1991)
Read-outs that look alike come from different tables or passages of the source.

How the values were obtained:
[1] = system: lymphocytes; test: Lymphoblastoid transformation test, 3H-TdR (Example 7, Table 3); type: cell-based, mice; conditions: C: control, only antiviral drug (80 μg/ml)
Method: (§1) Male mice weight 18-20 g were used in the experimetns. The dosage of SDI is 5-10 mg/kg injected intraperitoneally. The normal mice were injected with same volume of normal saline. These injections were repeated daily for 3-5 days. On the last say, both antiviral drug and antiviral drug+SDI group were injected interaperitoneally.
1. Reagents and conditions for cell culture
a. Culture media--RPMI 1640, madium 199 minimal essential medium (Eagle).
b. 37° C. to maintain the pH of the medium at 7.31.
c. Serum--generally 15-20% fetal bovine serum was incorporated.
d. Gaseous phase 5% CO2 in air;
e. Cell concentration--generally 1-2×10^6 /ml;
f. Stimulants--20 μg/ml for phytoagglutinin containing polysaccharide (PHA-M) or 10 μg/ml for polysaccharide-free purified phytoagglutinin (PHA-P).
2. Measured by liquid scintillation
a. The conditions of cell culture are same as above. ^3 H-TdR was added after 48 hours of incubation at a final concentration of 2 μCi/ml and continue the incubation for 24 hours.
b. Wash the cells twice with cold normal saline and the erythrocytes were lysed by addition of distilled-water and equal volume of 3.6% NaCi was then added. The intact lymphocytes and add 2 ml of 10% trichloroacetic acid to precipitate the protein. Wash twice with normal saline. Add 2 ml of ethanol: ether (1:1) to wash once. 0.2 ml of formic acid was then added for digestion till the precipitate was dissolved.
c. Add 4 ml of scintillation fluid to 0.1 ml of the final sample and count in a liquid scintillation counter.

[2] = system: peritoneal macrophage; test: Phagocytosis of peritoneal macrophage of mice, 51Cr chick red blood cells (Example 10, Table 6); type: cell-based; conditions: C: control, only antiviral drug (80 μg/ml)
Method: as §1
Count the number of macrophages in the peritoneal exudate of mice and adjust to 1×10^7 cell/ml with normal saline. Add 0.1 ml of the macrophage suspension. i.e. 1×10^6 cells to each well on the plastic plate for test. Lable the chick red blood cell with ^51 Cr. Suspend the labelled chick red blood cell and adjust to 1.5×10^8/ml, add 0.1 ml, i.e. 1.5×10^7, to each well. Incubate at 37° C. for 30 minutes. Wash thoughly to remove the free chick red blood cells. Count each well in a γ-counter.

[3] = system: white blood cells; test: White blood cells assay (Example 8, Table 4); type: in vivo, mice; conditions: C: control, only antiviral drug (80 μg/ml); 7 days
Method: as §1
Action of SDI II and antiviral drug on white blood cells was investigated by means of white blood cells assay. […] Time of treatment is 7 days.

[4] = system: T lymphocytes; test: Formation of rosette (T lymphocytes with sheep erythrocytes) (Example 9, Table 5); type: cell-based, mice; conditions: C: control, only antiviral drug (80 μg/ml)
Method: as §1
a. Obtain venous blood in heparin (10 IU ml^-1) and perform a total and differential leucocyte count.
b. Isolate lymphocyte fraction. Count vaiable lymphocytes calculate and record total yield. Adjust to 5×10^5 lymphocytes ml^-1.
c. Wash sheep erythrocytes by centrifugation (400 g for 10 minutes at room temperature) and ajust to a 2.5% v/v suspension in PBS.
d. Mix 0.1 ml of the lymphocyte suspension with 0.1 ml of sheep erythrocytes and centrifuge at 225 g for 5 minutes at room temperature.
e. Incubate for 2 hours at 4° C.
f. Add 50 μl of fetal bovine serum (FBS).
g. Resuspend cell mixture by gently tapping the tube and pipette a sample into a haemocytomer.
h. Count 200 lymphocytes and determine the percentage of cell with 3 or more erythrocytes attached. (Three are T lymphocytes).
i. Calculate the absolute number of T lymphocytes ml^-1 of original blood.

[5] = cited from earlier work
[6] = system: bone marrow stem cells (CFU-S); test: Spleen colony assay, bone marrow stem cells (CFU-S) (Example 6, Table 2); type: in vivo, mice; conditions: C: control, only antiviral drug (80 μg/ml)
Method: as §1
Effects of SDI on hemopoietic system were investigated.

[7] = system: YAC-1 or EAC cells; test: Natural killer cell cytotoxicity, 51Cr release from YAC-1 or EAC cells (Example 5, Table 1); type: cell-based, mice; conditions: C: control, only antiviral drug (80 μg/ml); E:T 100:1
Method: as §1
Natural Killer (NK) Cells can destrou many viruse. NK cells may be important in limiting early spread of virus, also Natural Killer Cytotoxicity is effective antiviral agent. NK cell cytoxicity was tested by chromium release which assay using ^51 Cr-labelled YAC-1 or EAC cell line as targer cells. […] The effector cell to target cell (E:T) radio is 100:1. After the incubation the tuber were spun, the amount of ^51 Cr-released in 0.1 ml supernatant was counted by r-scintillation counter. Percent cytotoxicity was calculated from the following formula: [formula]

[8] = system: DNA synthesis; conditions: cited from earlier work

| Compound | CPM (lymphoblastoid transformation) [1] [CPM] | CPM (phagocytosis of peritoneal macrophage) [2] [CPM] | White blood cells [3] [mL⁻¹] | Rate of formed rosette [4] [%] | side effects (marrow, blood) ([5]; various degree) | Mean CFU ± SD [6] | % Cytotoxicity (NK cells) [7] [%] | side effects (marrow, blood) ([5]; in vivo) | DNA synthesis [8] |
| --- | --- | --- | --- | --- | --- | --- | --- | --- | --- |
| Nc1ccn([C@@H]2O[C@H](CO)[C@@H](O)[C@@H]2O)c(=O)n1 [Ara-C, Cytarabine] | 654 | 512 | 4200 | 23.7 | bone-marrow suppression, megaloblastic anemia and recreasing total white blood cells | 3.8 | – | – | – |
| N=c1ccn2c(n1)O[C@H]1[C@H](O)[C@@H](CO)O[C@H]12 [C.C., Cyclocytidine] | – | – | – | – | bone-marrow suppression, megaloblastic anemia and recreasing total white blood cells | – | – | – | – |
| Nc1ncnc2c1ncn2[C@H]1CC[C@@H](CO)O1 [DDA, 2',3'-Dideoxyadenoside] | 502 | 489 | 4200 | 22.4 | bone-marrow suppression, megaloblastic anemia and recreasing total white blood cells | 4.2 | 18.0 | – | – |
| Nc1ncn([C@@H]2O[C@H](CO)[C@@H](O)[C@H]2O)c(=O)n1 [AZC] | 441 | 401 | 3800 | 19.8 | – | 3.1 | 11.2 | – | – |
| O=P1(N(CCCl)CCCl)NCCCO1 (centres unmarked) [CP, Cyclophosphamide] | 620 | 481 | 5300 | 20.7 | bone-marrow suppression, megaloblastic anemia and recreasing total white blood cells | 4.0 | 20.7 | – | – |
| Nc1ncn([C@H]2C[C@H](O)[C@@H](CO)O2)c(=O)n1 [AZCdR, 5'-Aza-2'-deoxycytidine] | – | – | – | – | bone-marrow suppression, megaloblastic anemia and recreasing total white blood cells | – | – | – | – |
| Nc1ccn([C@H]2CC[C@@H](CO)O2)c(=O)n1 [DDC, 2',3'-Dideoxycytidine] | – | – | – | – | – | – | – | bone-marrow suppression, megaloblastic anemia and recreasing total white blood cells | – |
| Cc1cn([C@H]2C[C@H](N=[N+]=[N-])[C@@H](CO)O2)c(=O)[nH]c1=O [AZT, 3'-Azido-3'-deoxythymidine] | – | – | – | – | bone-marrow suppression and megaloblastic anemia, and decreasing total white blood cells | – | – | – | blocker of DNA synthesis |
| NC(=O)c1ncn([C@@H]2O[C@H](CO)[C@@H](O)[C@H]2O)n1 [Rib, Ribofuranosyl-Trazole-Carboxamide] | 763 | 540 | 4900 | 28.7 | bone-marrow suppression, megaloblastic anemia and recreasing total white blood cells | 4.2 | 22.3 | – | – |
| Nc1nc2c(ncn2COCCO)c(=O)[nH]1 [ACV, Acyclovir] | – | – | – | – | bone-marrow suppression, megaloblastic anemia and recreasing total white blood cells | – | – | – | – |
| O=c1[nH]c(=O)n([C@H]2C[C@H](O)[C@@H](CO)O2)cc1I [IDU, Idoxuridine] | – | – | – | – | – | – | – | bone-marrow suppression, megaloblastic anemia and recreasing total white blood cells | – |
| O=c1cnn([C@@H]2O[C@H](CO)[C@@H](O)[C@H]2O)c(=O)[nH]1 [AZU, 6-Azauridune] | – | – | – | – | bone-marrow suppression, megaloblastic anemia and recreasing total white blood cells | – | – | – | – |
